Experimental data reported in patent US20030186434A1, “Method of forming vertebrate pancreas in vitro” (priority 2002, published 2003).

Tested on: blastopore upper lip of early gastrula of a Xenopus
Experiment: Tissue differentiation of blastopore upper lip treated with retinoic acid for three hours, light microscopy
Conditions: treated 3 hours, cultured 10 days

CC1=C(/C=C/C(C)=C/C=C/C(C)=C/C(=O)O)C(C)(C)CCC1 [Retinoic acid, retinoic acid]
Coelomic epithelium differentiated, specimens (%) (10^−4 M, 35 specimens): 5 (14) | Ear vesicle differentiated, specimens (%) (10^−4 M, 35 specimens): 0 (0) | Epidermis differentiated, specimens (%) (10^−4 M, 35 specimens): 8 (23) | Eye or its fragments differentiated, specimens (%) (10^−4 M, 35 specimens): 0 (0) | Gastric gland differentiated, specimens (%) (10^−4 M, 35 specimens): 0 (0) | Hemocyte differentiated, specimens (%) (10^−4 M, 35 specimens): 0 (0) | Intestinal epithelium differentiated, specimens (%) (10^−4 M, 35 specimens): 34 (97) | Mesenchyme differentiated, specimens (%) (10^−4 M, 35 specimens): 32 (91) | Muscle differentiated, specimens (%) (10^−4 M, 35 specimens): 7 (20) | Neural tissue differentiated, specimens (%) (10^−4 M, 35 specimens): 0 (0) | Notochord differentiated, specimens (%) (10^−4 M, 35 specimens): 33 (94) | Pancreas differentiated, specimens (%) (10^−4 M, 35 specimens): 25 (71) | Pharyngeal epithelium differentiated, specimens (%) (10^−4 M, 35 specimens): 21 (60) | Pronephros differentiated, specimens (%) (10^−4 M, 35 specimens): 0 (0) | Yolk-rich cell differentiated, specimens (%) (10^−4 M, 35 specimens): 29 (83) | Atypical epidermis differentiated, specimens (%) (10^−5 M, 35 specimens): 0 (0) | Cartilage differentiated, specimens (%) (10^−5 M, 35 specimens): 3 (9) | Cement gland differentiated, specimens (%) (10^−5 M, 35 specimens): 0 (0) | Coelomic epithelium differentiated, specimens (%) (10^−5 M, 35 specimens): 5 (14) | Ear vesicle differentiated, specimens (%) (10^−5 M, 35 specimens): 0 (0) | Epidermis differentiated, specimens (%) (10^−5 M, 35 specimens): 13 (37) | Eye or its fragments differentiated, specimens (%) (10^−5 M, 35 specimens): 0 (0) | Gastric gland differentiated, specimens (%) (10^−5 M, 35 specimens): 9 (26) | Hemocyte differentiated, specimens (%) (10^−5 M, 35 specimens): 0 (0) | Intestinal epithelium differentiated, specimens (%) (10^−5 M, 35 specimens): 33 (94) | Mesenchyme differentiated, specimens (%) (10^−5 M, 35 specimens): 20 (57) | Muscle differentiated, specimens (%) (10^−5 M, 35 specimens): 4 (11) | Neural tissue differentiated, specimens (%) (10^−5 M, 35 specimens): 1 (3) | Notochord differentiated, specimens (%) (10^−5 M, 35 specimens): 25 (71) | Pancreas differentiated, specimens (%) (10^−5 M, 35 specimens): 15 (43) | Pharyngeal epithelium differentiated, specimens (%) (10^−5 M, 35 specimens): 19 (54) | Pronephros differentiated, specimens (%) (10^−5 M, 35 specimens): 12 (34) | Yolk-rich cell differentiated, specimens (%) (10^−5 M, 35 specimens): 30 (86) | Atypical epidermis differentiated, specimens (%) (10^−6 M, 35 specimens): 0 (0) | Cartilage differentiated, specimens (%) (10^−6 M, 35 specimens): 22 (63) | Cement gland differentiated, specimens (%) (10^−6 M, 35 specimens): 0 (0) | Coelomic epithelium differentiated, specimens (%) (10^−6 M, 35 specimens): 12 (34) | Ear vesicle differentiated, specimens (%) (10^−6 M, 35 specimens): 0 (0) | Epidermis differentiated, specimens (%) (10^−6 M, 35 specimens): 34 (97) | Eye or its fragments differentiated, specimens (%) (10^−6 M, 35 specimens): 0 (0) | Gastric gland differentiated, specimens (%) (10^−6 M, 35 specimens): 1 (3) | Hemocyte differentiated, specimens (%) (10^−6 M, 35 specimens): 0 (0) | Intestinal epithelium differentiated, specimens (%) (10^−6 M, 35 specimens): 4 (11) | Mesenchyme differentiated, specimens (%) (10^−6 M, 35 specimens): 35 (100) | Muscle differentiated, specimens (%) (10^−6 M, 35 specimens): 20 (57) | Neural tissue differentiated, specimens (%) (10^−6 M, 35 specimens): 15 (43) | Notochord differentiated, specimens (%) (10^−6 M, 35 specimens): 30 (86) | Pancreas differentiated, specimens (%) (10^−6 M, 35 specimens): 1 (3) | Pharyngeal epithelium differentiated, specimens (%) (10^−6 M, 35 specimens): 34 (97) | Pronephros differentiated, specimens (%) (10^−6 M, 35 specimens): 0 (0) | Yolk-rich cell differentiated, specimens (%) (10^−6 M, 35 specimens): 31 (89) | Atypical epidermis differentiated, specimens (%) (10^−7 M, 32 specimens): 0 (0) | Cartilage differentiated, specimens (%) (10^−7 M, 32 specimens): 16 (50) | Cement gland differentiated, specimens (%) (10^−7 M, 32 specimens): 0 (0) | Coelomic epithelium differentiated, specimens (%) (10^−7 M, 32 specimens): 5 (16) | Ear vesicle differentiated, specimens (%) (10^−7 M, 32 specimens): 0 (0) | Epidermis differentiated, specimens (%) (10^−7 M, 32 specimens): 31 (97) | Eye or its fragments differentiated, specimens (%) (10^−7 M, 32 specimens): 0 (0) | Gastric gland differentiated, specimens (%) (10^−7 M, 32 specimens): 0 (0) | Hemocyte differentiated, specimens (%) (10^−7 M, 32 specimens): 0 (0) | Intestinal epithelium differentiated, specimens (%) (10^−7 M, 32 specimens): 1 (3) | Mesenchyme differentiated, specimens (%) (10^−7 M, 32 specimens): 32 (100) | Muscle differentiated, specimens (%) (10^−7 M, 32 specimens): 24 (75) | Neural tissue differentiated, specimens (%) (10^−7 M, 32 specimens): 9 (28) | Notochord differentiated, specimens (%) (10^−7 M, 32 specimens): 31 (97) | Pancreas differentiated, specimens (%) (10^−7 M, 32 specimens): 0 (0) | Pharyngeal epithelium differentiated, specimens (%) (10^−7 M, 32 specimens): 30 (94) | Pronephros differentiated, specimens (%) (10^−7 M, 32 specimens): 0 (0) | Yolk-rich cell differentiated, specimens (%) (10^−7 M, 32 specimens): 24 (75) | Atypical epidermis differentiated, specimens (%) (10^−8 M, 20 specimens): 0 (0) | Cartilage differentiated, specimens (%) (10^−8 M, 20 specimens): 5 (25) | Cement gland differentiated, specimens (%) (10^−8 M, 20 specimens): 0 (0) | Coelomic epithelium differentiated, specimens (%) (10^−8 M, 20 specimens): 3 (15) | Ear vesicle differentiated, specimens (%) (10^−8 M, 20 specimens): 0 (0) | Epidermis differentiated, specimens (%) (10^−8 M, 20 specimens): 20 (100) | Eye or its fragments differentiated, specimens (%) (10^−8 M, 20 specimens): 0 (0) | Gastric gland differentiated, specimens (%) (10^−8 M, 20 specimens): 0 (0) | Hemocyte differentiated, specimens (%) (10^−8 M, 20 specimens): 0 (0) | Intestinal epithelium differentiated, specimens (%) (10^−8 M, 20 specimens): 0 (0) | Mesenchyme differentiated, specimens (%) (10^−8 M, 20 specimens): 20 (100) | Muscle differentiated, specimens (%) (10^−8 M, 20 specimens): 17 (85) | Neural tissue differentiated, specimens (%) (10^−8 M, 20 specimens): 2 (10) | Notochord differentiated, specimens (%) (10^−8 M, 20 specimens): 18 (90) | Pancreas differentiated, specimens (%) (10^−8 M, 20 specimens): 2 (10) | Pharyngeal epithelium differentiated, specimens (%) (10^−8 M, 20 specimens): 17 (85) | Pronephros differentiated, specimens (%) (10^−8 M, 20 specimens): 0 (0) | Yolk-rich cell differentiated, specimens (%) (10^−8 M, 20 specimens): 16 (80)
